Counter-ions that a name gives are not always drawn. Like-named read-outs stand apart in the source and are kept apart here. Blank lines part the entries; values can stand above or below the compound they belong to.
Experiments:
[1] = molecular target: human CDK4 and genetically truncated (1-264) cyclin D3 (Homo sapiens, UniProt P11802); assay: Inhibition of CDK4/Cyclin D Retinoblastoma Kinase Activity; type: biochemical; conditions: for Ki: apparent Ki, CDK4/truncated cyclin D3, Rb fragment substrate, 25 μM ATP
Summary of the method: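 The enzyme complex (5 nM), expressed in co-infected insect cells, was incubated with recombinant Rb fragment, 25 μM radiolabelled ATP and 2% DMSO at 30 °C. Reactions were stopped with EDTA after 20 minutes, or 60 minutes for tight-binding inhibitors. Apparent Ki values came from competitive inhibition fits.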

HCT-116 cell line = assay: Inhibition of cell growth, tetrazolium salt (MTT) assay; type: cell-based; conditions: for IC50: Homo sapiens, HCT-116, 120 h, MTT, three to five days, read-out: HCT-116 IC50; for HCT-116 % Inhibition at 0.25 μM: 0.25 μM compound
Summary of the method: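 McCoy's 5A cultures; 4 h pre-incubation; compound dilutions in 0.5% v/v DMSO; 3–5 d, 37° C, 5% CO2; MTT 0.2 mg/mL final, 4 h; formazan dissolved in DMSO, A540; vs 0.5% DMSO vehicle.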

CDK2/Cyclin A = CDK2/Cyclin A (Homo sapiens, UniProt P24941); assay: Inhibition of CDK2/Cyclin A Retinoblastoma Kinase Activity; type: biochemical; conditions: for Ki: apparent Ki, CDK2/proteolyzed cyclin A, Rb fragment substrate, 25 μM ATP
Summary of the method: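 CDK2 (10 or 19 nM), insect-cell expressed, gel-filtration purified with truncated cyclin A; Rb fragment substrate; 25 μM ATP; 10 mM HEPES pH 7.4, 10 mM MgCl2; 30° C, 60 or 75 min; EDTA stop; phosphocellulose/nitrocellulose capture, phosphorimager. % inhibition vs DMSO control, no-enzyme background subtracted.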

[2] = 0.1 μM compound, HCT-116, Table 3
[3] = 0.1 μM compound, HCT-116, Table 4

human CDK4 and genetically truncated (1-264) cyclin D3, sequence (P11802 whole entry, the tested form may be a part): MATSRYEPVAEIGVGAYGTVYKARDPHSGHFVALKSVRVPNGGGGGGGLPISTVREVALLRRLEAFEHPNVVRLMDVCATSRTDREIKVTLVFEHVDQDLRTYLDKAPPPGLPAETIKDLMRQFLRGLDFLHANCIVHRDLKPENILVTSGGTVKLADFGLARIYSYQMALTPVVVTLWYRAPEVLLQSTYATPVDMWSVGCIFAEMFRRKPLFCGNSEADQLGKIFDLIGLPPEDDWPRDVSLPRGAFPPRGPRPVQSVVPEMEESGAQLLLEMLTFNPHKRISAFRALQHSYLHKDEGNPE
human CDK4 and genetically truncated (1-264) cyclin D3, sequence (P30281 1-264 partner): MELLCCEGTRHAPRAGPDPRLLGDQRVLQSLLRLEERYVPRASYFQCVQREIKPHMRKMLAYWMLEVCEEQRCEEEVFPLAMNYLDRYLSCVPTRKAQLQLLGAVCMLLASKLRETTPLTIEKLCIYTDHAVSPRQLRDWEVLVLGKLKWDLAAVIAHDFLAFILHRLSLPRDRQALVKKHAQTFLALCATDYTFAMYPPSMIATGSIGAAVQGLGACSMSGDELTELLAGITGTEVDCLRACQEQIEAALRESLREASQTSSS

Structure (SMILES): Nc1nc(NC2CCN(C(=O)c3c[nH]cn3)CC2)sc1C(=O)c1c(F)cccc1F [Example C14, 1-{4-Amino-2-[1-(1-1H-imidazol-4-yl-methanoyl)-piperidin-4-ylamino]-thiazol-5-yl}-1-(2,6-difluoro-phenyl)-methanone]
Ki [1]: 66 nM
IC50 (HCT-116 cell line; first HCT-116 column (c4)): > 5000 nM
IC50 (HCT-116 cell line; second HCT-116 column (c5)): > 5000 nM
Ki (CDK2/Cyclin A): 95 nM

Structure (SMILES): Nc1nc(NC2CCN(S(=O)(=O)c3ccc(OCCN4CCCC4)nc3)CC2)sc1C(=O)c1c(F)cccc1F [Example H5, 1-(4-Amino-2-{1-[6-(2-pyrrolidin-1-yl-ethoxy)-pyridine-3-sulfonyl]-piperidin-4-ylamino}-thiazol-5-yl)-1-(2,6-difluoro-phenyl)-methanone Trifluoroacetic Acid Salt]
Ki [1]: 0.39 nM
IC50 (HCT-116 cell line; first HCT-116 column (c4)): 71 nM
IC50 (HCT-116 cell line; second HCT-116 column (c5)): > 500 nM
Ki (CDK2/Cyclin A): 1.1 nM

Structure (SMILES): COC(=O)c1csc(S(=O)(=O)N2CCC(Nc3nc(N)c(C(=O)c4c(F)cccc4F)s3)CC2)c1OC [Example P70]
CDK4 % Inhibition at 0.03 μM ([1]; 0.03 μM compound, Table 3): 60%
HCT-116 % Inhibition at 0.1 μM (HCT-116 cell line; [2]): 14%
HCT-116 % Inhibition at 0.25 μM (HCT-116 cell line; HCT-116, Table 3): 27%
CDK2 % Inhibition at 0.03 μM (CDK2/Cyclin A; 0.03 μM compound, Table 3): 37%

Structure (SMILES): Nc1nc(NC2CCN(C(=O)[C@@H]3CCC(=O)O3)CC2)sc1C(=O)c1c(F)cccc1F [Example D5, 5S-[1{-4-[4-Amino-5-(2,6-difluoro-benzoyl)-thiazol-2-ylamethano]-piperidin-1-yl}-methanoyl]-tetrahydro-furan-2-one]
Ki [1]: 6.8 nM
IC50 (HCT-116 cell line; first HCT-116 column (c4)): > 5000 nM
IC50 (HCT-116 cell line; second HCT-116 column (c5)): > 5000 nM
Ki (CDK2/Cyclin A): 6.4 nM

Structure (SMILES): Cc1ccccc1NC(=O)N1CCC(Nc2nc(N)c(C(=O)c3c(F)cccc3F)s2)CC1 [Example O11]
CDK4 % Inhibition at 0.03 μM ([1]; 0.03 μM compound, Table 2): 6%
HCT-116 % Inhibition at 0.25 μM (HCT-116 cell line; HCT-116, Table 2): 0%
CDK2 % Inhibition At 0.03 μM (CDK2/Cyclin A; 0.03 μM compound, Table 2): 35%

Structure (SMILES): CN1CC[C@H](Oc2ccc(S(=O)(=O)N3CCC(Nc4nc(N)c(C(=O)c5c(F)cccc5F)s4)CC3)cn2)C1 [Example H28, (4-Amino-2-{1-[6-(1-methyl-pyrrolidin-3S-yloxy)-pyridine-3-sulfonyl]-piperidin-4-ylamino}-thiazol-5-yl)-(2,6-difluoro-phenyl)-methanone Hydrochloride]
Ki [1]: 1 nM
IC50 (HCT-116 cell line; first HCT-116 column (c4)): 49 nM
IC50 (HCT-116 cell line; second HCT-116 column (c5)): 160 nM
Ki (CDK2/Cyclin A): 0.41 nM

Structure (SMILES): Nc1nc(NC2CCN(S(=O)(=O)c3ccc(CCN4C[C@@H]5[C@@H](N)[C@@H]5C4)nc3)CC2)sc1C(=O)c1c(F)cccc1F [Example N10, [4-Amino-2-(1-{6-[2-(1α, 5β, 6γ-amino-3-aza-bicyclo[3.1.0]hex-3-yl)-ethyl]-pyridine-3-sulfonyl}-piperidin-4-ylamino)-thiazol-5-yl]-(2,6-difluoro-phenyl)-methanone Hydrochloride Salt.]
Ki [1]: 0.21 nM
IC50 (HCT-116 cell line; first HCT-116 column (c4)): 380 nM
IC50 (HCT-116 cell line; second HCT-116 column (c5)): 3000 nM
Ki (CDK2/Cyclin A): 1.3 nM

Structure (SMILES): Nc1nc(NC2CCN(C(=O)Oc3ccc(Cl)cc3)CC2)sc1C(=O)c1c(F)cccc1F [Example Q5]
CDK4 % Inhibition at 0.03 μM ([1]; 0.03 μM compound, Table 4): 81%
HCT-116 % Inhibition at 0.1 μM (HCT-116 cell line; [3]): 0.81%
HCT-116 % Inhibition at 0.25 μM (HCT-116 cell line; HCT-116, Table 4): 36%
CDK2 % Inhibition at 0.03 μM (CDK2/Cyclin A; 0.03 μM compound, Table 4): 45%

More lines, main results first:

CDK4 % Inhibition at 0.03 μM ([1]; at 0.03 μM): 11%
CDK2 % Inhibition at 0.03 μM (CDK2/Cyclin A; at 0.03 μM): 8%
Structure (SMILES): Nc1nc(NC2CCN(C(=O)CC3C=CCC3)CC2)sc1C(=O)c1c(F)cccc1F (stereo not drawn) [Example R98]
HCT-116 % Inhibition at 0.1 μM (HCT-116 cell line; HCT-116 cells, at 0.1 μM): 0%
HCT-116 5 Inhibition at 0.25 μM (HCT-116 cell line; HCT-116 cells): 44

CDK4 % Inhibition at 0.03 μM ([1]; at 0.03 μM): 60%
CDK2 % Inhibition at 0.03 μM (CDK2/Cyclin A; at 0.03 μM): 57%
Structure (SMILES): Nc1nc(NC2CCN(C(=O)c3sc4ccccc4c3Cl)CC2)sc1C(=O)c1c(F)cccc1F [Example R31]
HCT-116 % Inhibition at 0.1 μM (HCT-116 cell line; HCT-116 cells, at 0.1 μM): 0%
HCT-116 5 Inhibition at 0.25 μM (HCT-116 cell line; HCT-116 cells): 42

CDK4 % Inhibition at 0.03 μM ([1]; 0.03 μM compound, Table 3): 4%
CDK2 % Inhibition at 0.03 μM (CDK2/Cyclin A; 0.03 μM compound, Table 3): −30%
Structure (SMILES): CCCCOc1ccc(C(C)(C)CC)cc1S(=O)(=O)N1CCC(Nc2nc(N)c(C(=O)c3c(F)cccc3F)s2)CC1 [Example P74]
HCT-116 % Inhibition at 0.1 μM (HCT-116 cell line; [2]): 19%
HCT-116 % Inhibition at 0.25 μM (HCT-116 cell line; HCT-116, Table 3): 27%

CDK4 % Inhibition at 0.03 μM ([1]; 0.03 μM compound, Table 4): 43%
CDK2 % Inhibition at 0.03 μM (CDK2/Cyclin A; 0.03 μM compound, Table 4): 18%
Structure (SMILES): COc1ccc(CC(=O)N2CCC(Nc3nc(N)c(C(=O)c4c(F)cccc4F)s3)CC2)cc1OC [Example Q72]
HCT-116 % Inhibition at 0.1 μM (HCT-116 cell line; [3]): 8%
HCT-116 % Inhibition at 0.25 μM (HCT-116 cell line; HCT-116, Table 4): 29%

CDK4 % Inhibition at 0.03 μM ([1]; at 0.03 μM): 42%
CDK2 % Inhibition at 0.03 μM (CDK2/Cyclin A; at 0.03 μM): 14%
Structure (SMILES): CCOc1ccccc1C(=O)N1CCC(Nc2nc(N)c(C(=O)c3c(F)cccc3F)s2)CC1 [Example R6]
HCT-116 % Inhibition at 0.1 μM (HCT-116 cell line; HCT-116 cells, at 0.1 μM): 12%
HCT-116 5 Inhibition at 0.25 μM (HCT-116 cell line; HCT-116 cells): 51

From patent publication US20050101595A1, “N-containing cycloalkyl-substituted amino-thiazole derivatives and pharmaceutical compositions for inhibiting cell proliferation and methods for their use” (PFIZER INC., priority 2003, published 2005)
